Several values for one entry are separate records, joined by “and”; a condition that tells them apart may be missing. Identical values can stand only once. Activity calls are given as the source filed them.
Key:
Mucolipin-3 [1] = target: T1, Mucolipin-3 (Homo sapiens, UniProt Q8TDD5); assay: human mucolipin-3 activators, concentration-response – cell-based, calcium fluorescence, dose response (AID 2510); format: functional
T1 sequence (Q8TDD5 whole entry): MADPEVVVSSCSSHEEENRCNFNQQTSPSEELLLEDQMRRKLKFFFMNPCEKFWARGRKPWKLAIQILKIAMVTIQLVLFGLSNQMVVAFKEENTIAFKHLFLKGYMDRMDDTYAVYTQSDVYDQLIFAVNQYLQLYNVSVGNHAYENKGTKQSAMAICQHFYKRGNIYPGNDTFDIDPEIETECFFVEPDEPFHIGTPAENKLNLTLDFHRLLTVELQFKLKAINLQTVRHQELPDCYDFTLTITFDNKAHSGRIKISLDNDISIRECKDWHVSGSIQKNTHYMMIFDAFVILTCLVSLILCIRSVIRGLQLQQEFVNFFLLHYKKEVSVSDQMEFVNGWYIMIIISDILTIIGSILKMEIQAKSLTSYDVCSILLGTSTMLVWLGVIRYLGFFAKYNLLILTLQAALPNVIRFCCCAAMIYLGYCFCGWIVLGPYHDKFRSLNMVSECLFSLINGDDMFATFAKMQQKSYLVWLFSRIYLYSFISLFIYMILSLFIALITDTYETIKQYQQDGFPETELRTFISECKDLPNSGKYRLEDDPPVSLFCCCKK

Mucolipin-3 [2] = target: T1, Mucolipin-3; assay: Dose response cell-based high-throughput screening assay for agonists of the transient receptor potential channel ML3 (TRPML3). [Related pubchem assays: 1526, 1424, 1448 ]; format: functional
Ion channel NompC [3] = target: T2, Ion channel NompC (Danio rerio, UniProt Q7T1G6); assay: Late stage counterscreen for the probe development effort to identify selective agonists of the Transient Receptor Potential Channels 3 (TRPML3): fluorescence-based cell-based dose response assay for TRPN1 agonists.; format: functional
T2 sequence (Q7T1G6 whole entry): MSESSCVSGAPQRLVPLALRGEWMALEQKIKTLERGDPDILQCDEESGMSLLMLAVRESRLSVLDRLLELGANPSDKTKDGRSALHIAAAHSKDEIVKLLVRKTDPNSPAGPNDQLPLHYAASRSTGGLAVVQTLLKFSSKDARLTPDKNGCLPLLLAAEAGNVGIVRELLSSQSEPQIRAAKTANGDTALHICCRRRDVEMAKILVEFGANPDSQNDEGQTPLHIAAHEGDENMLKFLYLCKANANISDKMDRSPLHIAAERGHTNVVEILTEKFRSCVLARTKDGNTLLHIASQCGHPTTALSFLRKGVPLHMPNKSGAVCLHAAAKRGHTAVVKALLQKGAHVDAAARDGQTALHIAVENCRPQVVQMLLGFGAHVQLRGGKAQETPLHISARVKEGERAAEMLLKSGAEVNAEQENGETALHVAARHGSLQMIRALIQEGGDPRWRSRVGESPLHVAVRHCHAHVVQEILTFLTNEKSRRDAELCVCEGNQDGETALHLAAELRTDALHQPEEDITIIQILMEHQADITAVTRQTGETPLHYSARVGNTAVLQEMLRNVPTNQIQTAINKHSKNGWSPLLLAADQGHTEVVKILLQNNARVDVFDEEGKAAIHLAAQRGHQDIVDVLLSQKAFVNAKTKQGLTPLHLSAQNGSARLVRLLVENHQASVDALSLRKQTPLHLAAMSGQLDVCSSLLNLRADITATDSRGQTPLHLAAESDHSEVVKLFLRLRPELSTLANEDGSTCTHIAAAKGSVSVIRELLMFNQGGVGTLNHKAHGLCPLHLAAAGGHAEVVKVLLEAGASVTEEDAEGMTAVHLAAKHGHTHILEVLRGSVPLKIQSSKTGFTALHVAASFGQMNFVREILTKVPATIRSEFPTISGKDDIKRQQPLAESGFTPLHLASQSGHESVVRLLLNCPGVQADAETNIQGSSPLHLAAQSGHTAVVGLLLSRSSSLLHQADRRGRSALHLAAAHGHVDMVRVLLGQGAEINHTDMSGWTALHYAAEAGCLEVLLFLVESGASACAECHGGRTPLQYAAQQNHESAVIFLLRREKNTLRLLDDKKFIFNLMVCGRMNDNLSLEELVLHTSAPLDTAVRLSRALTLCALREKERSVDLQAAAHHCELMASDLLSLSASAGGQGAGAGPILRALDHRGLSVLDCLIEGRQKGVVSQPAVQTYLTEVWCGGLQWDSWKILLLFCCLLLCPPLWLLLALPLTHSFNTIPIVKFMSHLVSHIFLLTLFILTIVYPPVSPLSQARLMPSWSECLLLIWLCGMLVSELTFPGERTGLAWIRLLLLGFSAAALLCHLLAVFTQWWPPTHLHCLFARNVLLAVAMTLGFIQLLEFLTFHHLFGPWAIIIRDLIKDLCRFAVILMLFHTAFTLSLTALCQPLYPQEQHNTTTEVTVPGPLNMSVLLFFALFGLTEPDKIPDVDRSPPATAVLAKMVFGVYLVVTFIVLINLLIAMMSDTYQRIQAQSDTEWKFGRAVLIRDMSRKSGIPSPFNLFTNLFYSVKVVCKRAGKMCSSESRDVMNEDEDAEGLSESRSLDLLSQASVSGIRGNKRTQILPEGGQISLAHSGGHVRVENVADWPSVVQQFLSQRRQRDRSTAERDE

Ion channel NompC [4] = target: T2, Ion channel NompC; assay: Fluorescence counterscreen assay for TRPML3 agonists: dose response cell-based high-throughput screening assay to identify agonists of the transient receptor potential channel N1 (TRPN1). [Related pubchem assays: 1526, 1424, 1448 ]; format: functional
Bcl-2-related protein A1 [5] = target: T3, Bcl-2-related protein A1 (Mus musculus, UniProt Q07440); assay: displacement of Bid BH3 peptide from Bfl-1 – biochemical, fluorescence polarization, FITC-Bid, mouse, primary screen (AID 432)
T3 sequence (Q07440 whole entry): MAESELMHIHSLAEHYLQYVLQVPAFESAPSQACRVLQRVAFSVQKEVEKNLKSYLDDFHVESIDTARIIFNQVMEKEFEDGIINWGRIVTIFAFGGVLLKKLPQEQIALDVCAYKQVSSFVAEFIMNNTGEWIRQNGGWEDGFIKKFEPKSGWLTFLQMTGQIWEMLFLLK

[6] = target: Glyceraldehyde-3-phosphate dehydrogenase (Homo sapiens, UniProt P04406)
Glyceraldehyde-3-phosphate dehydrogenase, sequence (P04406 whole entry): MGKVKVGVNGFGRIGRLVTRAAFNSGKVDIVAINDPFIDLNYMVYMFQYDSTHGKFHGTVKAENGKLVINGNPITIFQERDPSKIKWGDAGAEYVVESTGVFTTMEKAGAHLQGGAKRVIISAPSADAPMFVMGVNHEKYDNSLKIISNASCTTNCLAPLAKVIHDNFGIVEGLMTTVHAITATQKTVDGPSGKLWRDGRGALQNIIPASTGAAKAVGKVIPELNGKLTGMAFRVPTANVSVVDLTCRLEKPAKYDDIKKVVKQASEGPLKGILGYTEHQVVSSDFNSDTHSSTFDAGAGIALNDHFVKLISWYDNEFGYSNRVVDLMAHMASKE

[7] = HPDE-C7 pancreatic duct cell viability loss – fluorescence, HTS (AID 430); format: functional, cell-based; conditions: Homo sapiens
Bcl-2-related protein A1 [8] = target: T3, Bcl-2-related protein A1; assay: small-molecule antagonists of Bfl-1/BH3 interaction – biochemical, TR-FRET, mouse Bfl-1, confirmation (AID 621);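 note: TR-FRET binding of GST-Bfl-1 to FITC-labelled Bid peptide via terbium antibody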
[9] = viability loss of HPDE-C7K cells – cell-based, fluorescence, HTS, primary screen (AID 431); format: functional; conditions: Homo sapiens
Bcl-2-related protein A1 [10] = target: T3, Bcl-2-related protein A1; assay: Bfl-1 binding inhibitors, SAR follow-up, biochemical, fluorescence polarization (AID 1070)
CHO = CHO cell viability loss, potency – luminescence, cytotoxicity control for TLR9-MyD88 binding inhibitor project, dose response (AID 588339); format: functional, cell-based, hamster; conditions: Cricetulus griseus;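 note: CHO cells stably coexpressing TLR9 and MyD88 fusions from primary screen; compound exposure lasted 48 hours before viability readout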
[11] = target: T4, Replicative DNA helicase DnaB (Mycobacterium tuberculosis, UniProt P9WMR3); assay: DnaB intein splicing inhibitors, dose response, biochemical, cell-free fluorescence (AID 449749); format: functional
T4 sequence (P9WMR3 whole entry): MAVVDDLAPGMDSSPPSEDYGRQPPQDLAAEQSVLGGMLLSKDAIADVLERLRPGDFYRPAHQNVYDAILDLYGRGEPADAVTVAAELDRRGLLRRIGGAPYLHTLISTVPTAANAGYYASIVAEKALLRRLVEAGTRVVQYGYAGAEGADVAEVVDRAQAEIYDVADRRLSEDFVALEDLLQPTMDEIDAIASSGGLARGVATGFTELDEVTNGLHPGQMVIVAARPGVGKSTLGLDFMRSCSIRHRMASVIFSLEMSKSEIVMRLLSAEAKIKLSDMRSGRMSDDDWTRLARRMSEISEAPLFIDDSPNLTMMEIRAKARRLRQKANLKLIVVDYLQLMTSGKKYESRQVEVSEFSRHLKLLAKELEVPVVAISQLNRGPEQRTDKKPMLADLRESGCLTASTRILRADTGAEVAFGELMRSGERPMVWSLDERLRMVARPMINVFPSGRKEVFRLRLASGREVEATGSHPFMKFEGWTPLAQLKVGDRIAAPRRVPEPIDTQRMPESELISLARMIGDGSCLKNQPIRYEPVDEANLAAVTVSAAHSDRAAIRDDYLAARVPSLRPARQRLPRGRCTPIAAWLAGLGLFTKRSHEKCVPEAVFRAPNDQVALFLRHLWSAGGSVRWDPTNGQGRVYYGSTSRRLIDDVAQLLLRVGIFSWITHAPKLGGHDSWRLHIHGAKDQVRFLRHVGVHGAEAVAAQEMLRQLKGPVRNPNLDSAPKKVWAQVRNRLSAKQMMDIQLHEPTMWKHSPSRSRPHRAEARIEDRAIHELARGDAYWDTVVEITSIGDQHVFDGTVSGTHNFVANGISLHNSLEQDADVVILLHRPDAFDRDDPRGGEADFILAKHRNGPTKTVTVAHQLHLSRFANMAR

Protein RecA = target: T5, Protein RecA (Mycobacterium tuberculosis, UniProt P9WHJ3); assay: Fluorescence Cell-Free Homogeneous Dose Retest to Identify Inhibitors of RecA-Intein Splicing Activity. [Related pubchem assays (depositor defined):AID2097, AID2223, AID489010, AID492950]; format: functional
T5 sequence (P9WHJ3 whole entry): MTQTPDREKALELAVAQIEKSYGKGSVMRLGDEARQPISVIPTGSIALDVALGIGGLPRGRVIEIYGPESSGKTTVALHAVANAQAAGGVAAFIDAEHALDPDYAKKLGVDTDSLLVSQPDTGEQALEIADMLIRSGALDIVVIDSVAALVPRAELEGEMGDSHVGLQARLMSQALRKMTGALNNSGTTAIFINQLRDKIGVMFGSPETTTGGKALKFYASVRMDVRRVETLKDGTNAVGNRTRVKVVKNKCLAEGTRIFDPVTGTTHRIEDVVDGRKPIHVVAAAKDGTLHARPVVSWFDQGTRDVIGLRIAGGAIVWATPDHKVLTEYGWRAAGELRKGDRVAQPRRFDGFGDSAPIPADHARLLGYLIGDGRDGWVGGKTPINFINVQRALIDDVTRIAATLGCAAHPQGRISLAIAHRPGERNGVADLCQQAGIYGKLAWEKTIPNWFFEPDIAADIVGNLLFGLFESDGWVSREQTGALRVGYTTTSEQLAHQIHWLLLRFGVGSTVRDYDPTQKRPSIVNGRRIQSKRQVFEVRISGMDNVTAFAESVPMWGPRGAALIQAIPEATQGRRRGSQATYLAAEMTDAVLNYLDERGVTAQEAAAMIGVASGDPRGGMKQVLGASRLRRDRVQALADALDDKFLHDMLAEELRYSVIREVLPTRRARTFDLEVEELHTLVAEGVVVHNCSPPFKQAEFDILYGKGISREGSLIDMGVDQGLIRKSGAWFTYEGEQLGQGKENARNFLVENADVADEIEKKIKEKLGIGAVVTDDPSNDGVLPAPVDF

Beta Lactamase = Beta Lactamase (Pseudomonas aeruginosa, UniProt Q932Y6); assay: BLA reporter interference, concentration series – BLA reporter cells, FRET fluorescence, artefact control for TLR9-MyD88 binding inhibitor project, dose response (AID 588341); format: cell-based;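 note: cell based assay in CHO-K1 cells stably expressing beta-lactamase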
Beta Lactamase, sequence (Q932Y6 whole entry): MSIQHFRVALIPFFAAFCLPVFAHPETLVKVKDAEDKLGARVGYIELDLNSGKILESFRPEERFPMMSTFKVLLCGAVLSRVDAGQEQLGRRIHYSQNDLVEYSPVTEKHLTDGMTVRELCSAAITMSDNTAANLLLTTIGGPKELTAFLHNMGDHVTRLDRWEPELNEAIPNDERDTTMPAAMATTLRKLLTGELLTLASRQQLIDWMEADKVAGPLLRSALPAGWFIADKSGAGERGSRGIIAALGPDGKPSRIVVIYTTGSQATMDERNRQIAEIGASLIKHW

[12] = reduction of Shn3 3'UTR-driven luciferase in osteoblasts – cell-based, Clone20 osteoblasts, firefly luciferase, cherry-picked, dose response (AID 624132); format: functional;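 note: firefly luciferase luminescence from reporter carrying the Shn3 3'UTR in osteoblasts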
[13] = loss of viability in HepG2 cells – cell-based, CellTiter-Glo, cherry-picked, cytotoxicity control for Shn3 inhibitor project, dose response (AID 624134); format: functional
[14] = non-specific 3'UTR reporter inhibition in Clone20-Shn3RL – cell-based, Renilla luciferase, cherry-picked, counter-screen for Shn3 inhibitor project, dose response (AID 624133); format: functional

Row | SMILES | EC50 (Mucolipin-3 [1]) | EC50 (Mucolipin-3 [2]) | EC50 (Ion channel NompC [3]) | EC50 (Ion channel NompC [4]) | IC50 (Bcl-2-related protein A1 [5]) | IC50 [6] | EC50 [7] | IC50 (Bcl-2-related protein A1 [8]) | EC50 [9] | IC50 (Bcl-2-related protein A1 [10]) | IC50 (CHO) | AC50 [11] | EC50 (Protein RecA) | IC50 (Beta Lactamase) | AC50 [12] | AC50 [13] | AC50 [14]
1 | Cc1ccc(S(=O)(=O)n2nccc2-c2c(-c3ccccc3)noc2C)cc1 | 1.01 µM (active) | 0.819 µM (active) | > 29.9 µM (not active) | > 29.9 µM (not active) |  |  |  |  |  |  |  |  |  |  |  |  | 
2 | CCOC(=O)CS(=O)(=O)c1nc(-c2ccc(F)cc2)cc(C(F)(F)F)n1 |  |  |  |  | 3.78 µM (active) | > 100 µM (not active) | 9.29 µM (active) | 3.41 µM (active) and 1.46 µM (active) | 6.05 µM (active) | 2.16 µM (active) | 2.88 µM (active) | 3.35 µM (active) | 3.3 µM (active) | 14.4 µM (inactive) | 1.78 µM (active) | 20.9 µM (active) | 6.97 µM (active)

— ChEMBL document CHEMBL1201862, “PubChem BioAssay data set” (2004)
